Data taken from patent US8951972B2, “FGFR1 extracellular domain combination therapies for lung cancer” (Five Prime Therapeutics, Inc., priority 2010, dated 2015).

Tests used:
[1] = test system: H520 Non-Small Cell Lung Cancer (NSCLC) Xenograft; test: H520 non-small cell lung cancer (NSCLC) xenograft model, tumor volume; assay type: in vivo, SCID mice
Method: Dosing for all groups began one day post tumor implantation.
In combination groups, FGFR1-ECD.339-Fc and pemetrexed were administered on the same schedule as when given as single agents, and were administered concurrently on days 1, 4, 8, and 11.

[2] = Body weight of the mice in the xenograft studies; assay type: in vivo; conditions: for Body weight / tolerability: 250 mg/kg; for Body weight (weight loss): A549 study
[3] = test system: A549 Non-Small Cell Lung Cancer (NSCLC) Xenograft; test: A549 non-small cell lung cancer (NSCLC) xenograft model, tumor volume; assay type: in vivo, SCID mice
Method: Six weeks old female SCID mice were purchased from Charles River Laboratories (Wilmington, Mass.) and were acclimated for 1 week before the start of the study. […] The cells were implanted subcutaneously over the right flank of the mice at 5×10^6 cells/100 μl/mouse. One day after tumor implantation, mice were randomized according to body weight at 10 mice per group.
The tumor volume and body weight of the mice were monitored twice a week throughout each study.
The tumor volume of each group of mice at the end of each study was analyzed by one-way ANOVA followed by Tukey's test.
Cisplatin was purchased from Sigma-Aldrich (St. Louis, Mo.; Cat. No. P4394), formulated in 0.9% saline, and administered i.p. at 3.5 mg/kg ([…]) once per week for six weeks. Saline was used as negative control and was administered i.p. at 100 μl per mouse twice a week for six weeks.
On day 42, when the average tumor volume in the vehicle group reached 1300 mm^3, the mice were euthanized by isoflurane inhalation and cervical dislocation.
FGFR1-ECD.339-Fc was formulated in 0.9% Saline for Injection USP at 3 mg/ml. […] FGFR1-ECD.339-Fc was administered intraperitoneally (i.p.) at 15 mg/kg twice per week for 5 weeks. Paclitaxel was administered i.p. at 18 mg/kg on days 8, 12, and 15.
When the average tumor volume in vehicle control group reached ˜500 mm^3, the mice were euthanized by isoflurane inhalation and cervical dislocation.
FGFR1-ECD.339-Fc was formulated in 0.9% Saline for Injection USP at 3 mg/ml. 5-FU was purchased from Sigma-Aldrich (St. Louis, Mo.; Cat. No. F6627) and was initially dissolved in dimethyl sulfoxide (DMSO, Sigma-Aldrich, St. Louis, Mo.; Cat. No. D8418-50) at the concentration of 50 mg/ml as a stock solution. The stock solution was further diluted in 0.9% Sodium Chloride Injection USP to 6.6 mg/ml (for 33 mg/kg dosing). FGFR1-ECD.339-Fc was administered intraperitoneally (i.p.) at 15 mg/kg twice per week for four weeks. 5-FU was administered i.p. at 33 mg/kg twice a week for three weeks.
Mice were euthanized on day 31 by isoflurane inhalation and cervical dislocation.
FGFR1-ECD.339-Fc was formulated in PBS at 3 mg/ml and administered intraperitoneally (i.p.) at 15 mg/kg (300 μg/100 μl/mouse) twice a week for four weeks. Docetaxel was administered i.p. at 3 mg/kg or 10 mg/kg twice per week for four weeks.
Mice in the albumin control group were euthanized on day 32 by isoflurane inhalation and cervical dislocation when the average tumor volume in the group reached 1000 mm^3.

[4] = test system: Colo205 Colon Cancer Xenograft; test: Colo205 colon cancer xenograft model, tumor volume; assay type: in vivo, SCID mice
Method: Cells were resuspended in a solution of 50%/v PBS and 50%/v Matrigel at a concentration of 25 million cells/ml. Resuspended cells were kept on ice until implantation. […] On day 0, 2.5 million cells/100 μl were implanted over the right flank of the each mouse using a 27G1/2 needle. One day after tumor implantation, the mice were randomized according to the body weight.
Leucovorin (LV) was also purchased from Sigma-Aldrich (Cat. No. F8259) and was formulated in 0.9% Sodium Chloride Injection USP at 2 mg/ml (for 10 mg/kg dosing), to 4 mg/ml (for 20 mg/kg dosing), and to 6 mg/ml (for 30 mg/kg dosing).
In the first experiment, FGFR1-ECD.339-Fc was combined with three different concentrations of 5-FU/leucovorin. In the second experiment, FGFR1-ECD.339-Fc was combined with either bevacizumab or 5-FU/leucovorin, or both. The double line separates the groups from the two experiments.
When the average tumor volume in a group was near 600 mm^3, the mice in that group were euthanized by isoflurane inhalation and cervical dislocation.
The order of effectiveness of the various treatments was evaluated two ways: 1) the average tumor volume in each group on a single time point (day); and 2) time for the average tumor volume in each group to reach 500 mm^3 (see the dotted line in FIG. 11E).
Leucovorin was also purchased from Sigma-Aldrich (Cat. No. F8259) and was formulated in 0.9% Sodium Chloride Injection USP at 2 mg/ml (for 10 mg/kg dosing).
5-FU and leucovorin were each administered i.p. at 10 mg/kg daily for five days. Oxaliplatin was administered i.p. at 5 mg/kg, 10 mg/kg, or 15 mg/kg in one dose on day 1.
Mice were euthanized on day 28 by isoflurane inhalation and cervical dislocation.

[5] = day 42, FGFR1-ECD.339-Fc 20 mg/kg i.p. 2x/wk x 6 wks, cisplatin 3.5 mg/kg i.p. 1x/wk x 6 wks
[6] = day 24, FGFR1-ECD.339-Fc 15 mg/kg i.p. 3x/wk x 4 wks, bevacizumab 1 mg/kg i.p. 2x/wk x 4 wks, 5-Fu/LV 10 mg/kg each i.p. q.d. x 5 days

Compound: Nc1nc2[nH]cc(CCc3ccc(C(=O)N[C@@H](CCC(=O)O)C(=O)O)cc3)c2c(=O)[nH]1 [Pemetrexed, (S)-2-[4-[2-(4-amino-2-oxo-3,5,7-triazabicyclo[4.3.0]nona-3,8,10-trien-9-yl)ethyl]benzoyl]aminopentanedioic acid, reference compound]
- Tumor inhibition over the course of the study (mean tumor volume) ([1]; FIG. 4A, highest dose of pemetrexed (250 mg/kg), alone or with FGFR1-ECD.339-Fc 15 mg/kg): did not appear to inhibit tumor growth
- Tumor inhibition over the course of the study (mean tumor volume) ([1]; FIGS. 2A, 3A, 4A, FGFR1-ECD.339-Fc 15 mg/kg, pemetrexed alone at the low or medium dose (62.5 or 125 mg/kg), combination dosed concurrently): resulted in tumor inhibition
- Body weight / tolerability ([2]; H520 study, high dose of pemetrexed, 250 mg/kg i.p. QD x 5, FIG. 4B): approaching the maximum tolerated dose
- Body weight / tolerability ([2]; mouse, in vivo, ip): initially lost significant body weight

Compound: N.N.[Cl][Pt][Cl] [Cisplatin, (SP-4-2)-diamminedichloridoplatinum, reference compound]
- Mean Tumor volume mm^3(±SD) [3, 5]: 682 (±195) mm^3
- Tumor growth inhibition (%) [3, 5]: 49%
- Fractional tumor volume (FTV) relative to control, each treatment alone ([3]; day 42, FGFR1-ECD.339-Fc 20 mg/kg, cisplatin 3.5 mg/kg): 0.5

Compound: O=c1[nH]cc(F)c(=O)[nH]1 [5-FU, 5-fluoro-1H-pyrimidine-2,4-dione, reference compound]
- Fractional tumor volume (FTV), each treatment alone ([3]; day 31, FGFR1-ECD.339-Fc 15 mg/kg i.p. 2x/wk x 4 wks, 5-FU 33 mg/kg i.p. 2x/wk x 3 wks): 1.04

Compound: CC[C@]1(O)C[C@H]2CN(CCc3c([nH]c4ccccc34)[C@@](C(=O)OC)(c3cc4c(cc3OC)N(C=O)[C@H]3[C@@](O)(C(=O)OC)[C@H](OC(C)=O)[C@]5(CC)C=CCN6CC[C@]43[C@@H]65)C2)C1 [Vincristine, methyl (1R,9R,10S,11R,12R,19R)-11-(acetyloxy)-12-ethyl-4-[(13S,15S,17S)-17-ethyl-17-hydroxy-13-(methoxycarbonyl)-1,11-diazatetracyclo[13.3.1.0^4,12.0^5,10]nonadeca-4(12),5,7,9-tetraen-13-yl]-8-formyl-10-hydroxy-5-methoxy-8,16-diazapentacyclo[10.6.1.0^1,9.0^2,7.0^16,19]nonadeca-2,4,6,13-tetraene-10-carboxylate, reference compound]
- Fractional tumor volume (FTV), each treatment alone ([3]; day 39, FGFR1-ECD.339-Fc 15 mg/kg i.p. 2x/wk (start day 1), vincristine 1 mg/kg i.p. days 8, 15, 22): 0.53
- Fractional tumor volume (FTV), each treatment alone ([3]; day 46, FGFR1-ECD.339-Fc 15 mg/kg i.p. 2x/wk (start day 1), vincristine 1 mg/kg i.p. days 8, 15, 22): 0.55
- Fractional tumor volume (FTV), each treatment alone ([3]; day 70, FGFR1-ECD.339-Fc 20 mg/kg i.p. 2x/wk (start day 19), vincristine 1.5 mg/kg i.p. days 27, 34, 41): 0.41
- Body weight (weight loss) ([2]; higher dose of vincristine (1.5 mg/kg i.p. days 27, 34, 41), FIG. 9C): lost weight
- Body weight (weight loss) ([2]; lower dose of vincristine (1 mg/kg i.p. days 8, 15, 22), data not shown): did not lose weight

Compound: Bevacizumab: recombinant humanized anti-VEGF monoclonal antibody [reference compound]
- Fractional tumor volume (FTV), each treatment alone ([4]; Day 24, FGFR1-ECD.339-Fc 15 mg/kg i.p. 3x/wk x 4 wks, bevacizumab 1 mg/kg i.p. 2x/wk x 4 wks, 5-Fu/LV 10 mg/kg each q.d. x 5 days): 0.58
- Order of antitumor effect of the treatment groups ([4]; by average tumor volume on a single day and by time for average tumor volume to reach 500 mm^3 (FIG. 11E), value gives the next-ranked group): >FGFR1-ECD.339-Fc
- Mean Tumor volume mm^3(±SD) [4, 6]: 405 (±56) mm^3
- Tumor growth inhibition (%) [4, 6]: 41%

Compound: CC(=O)O[C@H]1C(=O)[C@@]2(C)[C@H]([C@H](OC(=O)c3ccccc3)[C@]3(O)C[C@H](OC(=O)[C@H](O)[C@@H](NC(=O)c4ccccc4)c4ccccc4)C(C)=C1C3(C)C)[C@]1(OC(C)=O)CO[C@@H]1C[C@@H]2O [Paclitaxel, (2α,4α,5β,7β,10β,13α)-4,10-bis(acetyloxy)-13-{[(2R,3S)-3-(benzoylamino)-2-hydroxy-3-phenylpropanoyl]oxy}-1,7-dihydroxy-9-oxo-5,20-epoxytax-11-en-2-yl benzoate, reference compound]
- Fractional tumor volume (FTV), each treatment alone ([3]; day 31, FGFR1-ECD.339-Fc 15 mg/kg i.p. 2x/wk x 5 wks, paclitaxel 18 mg/kg i.p. days 8, 12, 15): 0.57
- Fractional tumor volume (FTV), each treatment alone ([3]; day 38, FGFR1-ECD.339-Fc 15 mg/kg i.p. 2x/wk x 5 wks, paclitaxel 18 mg/kg i.p. days 8, 12, 15): 0.50
